Measurements published in patent US20100311714A1, “1H-IMIDAZO[4,5-c]QUINOLINONE COMPOUNDS” (priority 2009, published 2010).
pIC50: −log10 of the molar value.

Experiments:
[1] = test system: PKB Ser473 phosphorylation in Rat1-myr-HA-p110 alpha cells; test: Reverse protein array, PKB Ser473 phosphorylation in Rat1-myr-HA-p110 alpha cells; assay type: cell-based; details: Rattus norvegicus, 0.5 h, 30 minutes compound incubation, read-out: p-PKB/IC50_alpha
[2] = test system: PKB Ser473 phosphorylation in Rat1-myr-HA-p110 delta cells; test: Reverse protein array, PKB Ser473 phosphorylation in Rat1-myr-HA-p110 delta cells; assay type: cell-based; details: Rattus norvegicus, 0.5 h, 30 minutes compound incubation, read-out: p-PKB/IC50_delta

Question: With CCNc1ncc(-c2ccc3ncc4c(c3c2)n(-c2ccc(N3CC[C@@H](O)C3)nc2C)c(=O)n4C)cc1COCC [Example 34.4, 8-(5-Ethoxymethyl-6-ethylamino-pyridin-3-yl)-1-[6-((R)-3-hydroxy-pyrrolidin-1-yl)-2-methyl-pyridin-3-yl]-3-methyl-1,3-dihydro-imidazo[4,5-c]quinolin-2-one] as the compound, how does the pIC50 [1] read?
Answer: 7.46

Question: What about the pIC50 [2] of the same compound?
Answer: 6.60

Question: What does the source list for CNc1ncc(-c2ccc3ncc4c(c3c2)n(-c2ccc(N(C)CCO)nc2C)c(=O)n4C)cn1 [Example 26.2, 1-{6-[(2-Hydroxy-ethyl)-methyl-amino]-2-methyl-pyridin-3-yl}-3-methyl-8-(2-methylamino-pyrimidin-5-yl)-1,3-dihydro-imidazo[4,5-c]quinolin-2-one]?
Answer: pIC50 [1]: 8.29; pIC50 [2]: 7.98

Question: Which results are given for CNc1ccc(-c2ccc3ncc4c(c3c2)n(-c2cccnc2C)c(=O)n4C)cn1 [Example 2.13, 3-Methyl-8-(6-methylamino-pyridin-3-yl)-1-(2-methyl-pyridin-3-yl)-1,3-dihydro-imidazo[4,5-c]quinolin-2-one]?
Answer: pIC50 [1]: 7.94; pIC50 [2]: 7.43

Question: COc1nc(N2CCNCC2)ccc1-n1c(=O)n(C)c2cnc3ccc(-c4cnc(N)c(C(F)(F)F)c4)cc3c21 [Example 9.2, 8-(6-Amino-5-trifluoromethyl-pyridin-3-yl)-1-(2-methoxy-6-piperazin-1-yl-pyridin-3-yl)-3-methyl-1,3-dihydro-imidazo[4,5-c]quinolin-2-one] was tested. Which pIC50 [1] did it give?
Answer: 7.47

Question: What about the pIC50 [2] of the same compound?
Answer: 7.62

Question: COc1cc(-c2ccc3ncc4c(c3c2)n(-c2cccnc2C)c(=O)n4C)cnc1C(OC)OC [Example 2.27, 8-(6-Dimethoxymethyl-5-methoxy-pyridin-3-yl)-3-methyl-1-(2-methyl-pyridin-3-yl)-1,3-dihydro-imidazo[4,5-c]quinolin-2-one] was tested. Which pIC50 [1] did it give?
Answer: 7.00

Question: And the pIC50 [2]?
Answer: 6.08

Question: CNc1ncc(-c2ccc3ncc4c(c3c2)n(-c2ccc(N3CC[C@H](O)C3)nc2C)c(=O)n4C)cc1F [Example 32.2, 8-(5-Fluoro-6-methylamino-pyridin-3-yl)-1-[6-((S)-3-hydroxy-pyrrolidin-1-yl)-2-methyl-pyridin-3-yl]-3-methyl-1,3-dihydro-imidazo[4,5-c]quinolin-2-one] was tested. Which pIC50 [1] did it give?
Answer: 8.09

Question: And the pIC50 [2]?
Answer: 7.52

Question: CCOc1ccc(-c2ccc3ncc4c(c3c2)n(-c2ccc(N3CCNCC3)nc2OC)c(=O)n4C)cn1 [Example 9.1, 8-(6-Ethoxy-pyridin-3-yl)-1-(2-methoxy-6-piperazin-1-yl-pyridin-3-yl)-3-methyl-1,3-dihydro-imidazo[4,5-c]quinolin-2-one] was tested. Which pIC50 [1] did it give?
Answer: 7.73

Question: And the pIC50 [2]?
Answer: 7.48

Question: What does the source list for Cc1nc(N(C)CCO)ccc1-n1c(=O)n(C)c2cnc3ccc(-c4cnc(N)c(C(F)(F)F)c4)cc3c21 [Example 26.1, 8-(6-Amino-5-trifluoromethyl-pyridin-3-yl)-1-{6-[(2-hydroxy-ethyl)-methyl-amino]-2-methyl-pyridin-3-yl}-3-methyl-1,3-dihydro-imidazo[4,5-c]quinolin-2-one]?
Answer: pIC50 [1]: > 8.34; pIC50 [2]: > 8.34

Question: COc1ccc(-c2ccc3ncc4c(c3c2)n(-c2cccnc2C)c(=O)n4C)cn1 [Example 2.12, 8-(6-Methoxy-pyridin-3-yl)-3-methyl-1-(2-methyl-pyridin-3-yl)-1,3-dihydro-imidazo[4,5-c]quinolin-2-one] was tested. Which pIC50 [1] did it give?
Answer: 7.53

Question: And the pIC50 [2]?
Answer: 7.10

Question: With Cc1nc(F)ccc1-n1c(=O)n(C)c2cnc3ccc(-c4cncc(C(C)(C)O)c4)cc3c21 [Example 7.8, 1-(6-Fluoro-2-methyl-pyridin-3-yl)-8-[5-(1-hydroxy-1-methyl-ethyl)-pyridin-3-yl]-3-methyl-1,3-dihydro-imidazo[4,5-c]quinolin-2-one] as the compound, how does the pIC50 [1] read?
Answer: 7.84

Question: What about the pIC50 [2] of the same compound?
Answer: 7.09

Question: Which results are given for Cc1nc(N2CCC2)ccc1-n1c(=O)n(C)c2cnc3ccc(-c4cncc(C(C)(C)O)c4)cc3c21 [Example 23.3, 1-(6-Azetidin-1-yl-2-methyl-pyridin-3-yl)-8-[5-(1-hydroxy-1-methyl-ethyl)-pyridin-3-yl]-3-methyl-1,3-dihydro-imidazo[4,5-c]quinolin-2-one]?
Answer: pIC50 [1]: 8.24; pIC50 [2]: 7.37

Question: What does the source list for COc1ncc(-c2ccc3ncc4c(c3c2)n(-c2ccc(N3CC[C@H](O)C3)nc2C)c(=O)n4C)c(OC)n1 [Example 32.3, 8-(2,4-Dimethoxy-pyrimidin-5-yl)-1-[6-((S)-3-hydroxy-pyrrolidin-1-yl)-2-methyl-pyridin-3-yl]-3-methyl-1,3-dihydro-imidazo[4,5-c]quinolin-2-one]?
Answer: pIC50 [1]: 7.35; pIC50 [2]: 7.23

Question: How did the pIC50 [1] turn out when CCOc1ccc(-c2ccc3ncc4c(c3c2)n(-c2ccc(F)nc2C)c(=O)n4C)cn1 [Example 7.3, 8-(6-Ethoxy-pyridin-3-yl)-1-(6-fluoro-2-methyl-pyridin-3-yl)-3-methyl-1,3-dihydro-imidazo[4,5-c]quinolin-2-one] was run?
Answer: 7.37

Question: And the pIC50 [2]?
Answer: 7.07

Question: Cc1nc(N2CC[C@H](O)C2)ccc1-n1c(=O)n(C)c2cnc3ccc(-c4cncc(OC(C)C)c4)cc3c21 [Example 32.8, 1-[6-((S)-3-Hydroxy-pyrrolidin-1-yl)-2-methyl-pyridin-3-yl]-8-(5-isopropoxy-pyridin-3-yl)-3-methyl-1,3-dihydro-imidazo[4,5-c]quinolin-2-one] was tested. Which pIC50 [1] did it give?
Answer: 7.45

Question: What about the pIC50 [2] of the same compound?
Answer: 7.02

Question: What does the source list for Cc1ncccc1-n1c(=O)n(C)c2cnc3ccc(-c4ccc(OCCCN(C)C)nc4)cc3c21 [Example 2.10, 8-[6-(3-Dimethylamino-propoxy)-pyridin-3-yl]-3-methyl-1-(2-methyl-pyridin-3-yl)-1,3-dihydro-imidazo[4,5-c]quinolin-2-one]?
Answer: pIC50 [1]: 6.94; pIC50 [2]: 6.64

Question: Which results are given for COc1ncccc1-n1c(=O)n(C)c2cnc3ccc(-c4ccc(C(N)=O)cc4)cc3c21 [Example 1.6, 4-[1-(2-Methoxy-pyridin-3-yl)-3-methyl-2-oxo-2,3-dihydro-1H-imidazo[4,5-c]quinolin-8-yl]-benzamide]?
Answer: pIC50 [1]: 8.18; pIC50 [2]: 7.53

Question: What does the source list for CCNc1ncc(-c2ccc3ncc4c(c3c2)n(-c2ccc(N3CC[C@@H](O)C3)nc2C)c(=O)n4C)cc1C(F)(F)F [Example 34.2, 8-(6-Ethylamino-5-trifluoromethyl-pyridin-3-yl)-1-[6-((R)-3-hydroxy-pyrrolidin-1-yl)-2-methyl-pyridin-3-yl]-3-methyl-1,3-dihydro-imidazo[4,5-c]quinolin-2-one]?
Answer: pIC50 [1]: 7.93; pIC50 [2]: 7.40

Question: How did the pIC50 [1] turn out when CNc1ncc(-c2ccc3ncc4c(c3c2)n(-c2ccc(N3CC(F)(F)C3)nc2C)c(=O)n4C)cn1 [Example 24.1, 1-[6-(3,3-Difluoro-azetidin-1-yl)-2-methyl-pyridin-3-yl]-3-methyl-8-(2-methylamino-pyrimidin-5-yl)-1,3-dihydro-imidazo[4,5-c]quinolin-2-one] was run?
Answer: 7.82

Question: What about the pIC50 [2] of the same compound?
Answer: 7.37

Question: How did the pIC50 [1] turn out when CCNc1cc(-c2ccc3ncc4c(c3c2)n(-c2ccc(N3CC(O)C3)nc2C)c(=O)n4C)cnc1CO [Example 29.2, 8-(5-Ethylamino-6-hydroxymethyl-pyridin-3-yl)-1-[6-(3-hydroxy-azetidin-1-yl)-2-methyl-pyridin-3-yl]-3-methyl-1,3-dihydro-imidazo[4,5-c]quinolin-2-one] was run?
Answer: 7.85

Question: And the pIC50 [2]?
Answer: 7.40

Question: How did the pIC50 [1] turn out when Cc1nc(N2CCN(C)C(=O)C2)ccc1-n1c(=O)n(C)c2cnc3ccc(-c4cnc(N)c(C(F)(F)F)c4)cc3c21 [Example 21.1, 8-(6-Amino-5-trifluoromethyl-pyridin-3-yl)-3-methyl-1-[2-methyl-6-(4-methyl-3-oxo-piperazin-1-yl)-pyridin-3-yl]-1,3-dihydro-imidazo[4,5-c]quinolin-2-one] was run?
Answer: > 8.34

Question: What about the pIC50 [2] of the same compound?
Answer: 7.99

Question: CNc1ncc(-c2ccc3ncc4c(c3c2)n(-c2ccc(N3CC[C@H](O)C3)nc2C)c(=O)n4C)cc1C(F)(F)F [Example 32.5, 1-[6-((S)-3-Hydroxy-pyrrolidin-1-yl)-2-methyl-pyridin-3-yl]-3-methyl-8-(6-methylamino-5-trifluoromethyl-pyridin-3-yl)-1,3-dihydro-imidazo[4,5-c]quinolin-2-one] was tested. Which pIC50 [1] did it give?
Answer: 8.00

Question: What about the pIC50 [2] of the same compound?
Answer: 7.80

Question: What does the source list for CCOc1ncc(-c2ccc3ncc4c(c3c2)n(-c2cccnc2C)c(=O)n4C)cn1 [Example 2.5, 8-(2-Ethoxy-pyrimidin-5-yl)-3-methyl-1-(2-methyl-pyridin-3-yl)-1,3-dihydro-imidazo[4,5-c]quinolin-2-one]?
Answer: pIC50 [1]: 7.31; pIC50 [2]: 6.69

Question: With COc1ccc(-c2ccc3ncc4c(c3c2)n(-c2ncccc2C)c(=O)n4C)cc1OC [Example 3.10, 8-(3,4-Dimethoxy-phenyl)-3-methyl-1-(3-methyl-pyridin-2-yl)-1,3-dihydro-imidazo[4,5-c]quinolin-2-one] as the compound, how does the pIC50 [1] read?
Answer: 7.11

Question: What about the pIC50 [2] of the same compound?
Answer: 6.32

Question: CNc1ncc(-c2ccc3ncc4c(c3c2)n(-c2ccc(C(C)(C)O)nc2C)c(=O)n4C)cc1F [Example 31.1, 8-(5-Fluoro-6-methylamino-pyridin-3-yl)-1-[6-(1-hydroxy-1-methyl-ethyl)-2-methyl-pyridin-3-yl]-3-methyl-1,3-dihydro-imidazo[4,5-c]quinolin-2-one] was tested. Which pIC50 [1] did it give?
Answer: 7.84

Question: What about the pIC50 [2] of the same compound?
Answer: 7.44

Question: COc1ccc(-c2ccc3ncc4c(c3c2)n(-c2cnccc2C)c(=O)n4C)cn1 [Example 4.3, 8-(6-Methoxy-pyridin-3-yl)-3-methyl-1-(4-methyl-pyridin-3-yl)-1,3-dihydro-imidazo[4,5-c]quinolin-2-one] was tested. Which pIC50 [1] did it give?
Answer: 6.69

Question: What about the pIC50 [2] of the same compound?
Answer: 6.17

Question: Cn1c(=O)n(-c2cccnc2F)c2c3cc(-c4cnc(N)c(C(F)(F)F)c4)ccc3ncc21 [Example 6.2, 8-(6-Amino-5-trifluoromethyl-pyridin-3-yl)-1-(2-fluoro-pyridin-3-yl)-3-methyl-1,3-dihydro-imidazo[4,5-c]quinolin-2-one] was tested. Which pIC50 [1] did it give?
Answer: 8.34

Question: What about the pIC50 [2] of the same compound?
Answer: 7.94

Question: What does the source list for Cc1nc(N2CCC2)ccc1-n1c(=O)n(C)c2cnc3ccc(-c4cncc(N5CCC5)c4)cc3c21 [Example 23.1, 1-(6-Azetidin-1-yl-2-methyl-pyridin-3-yl)-8-(5-azetidin-1-yl-pyridin-3-yl)-3-methyl-1,3-dihydro-imidazo[4,5-c]quinolin-2-one]?
Answer: pIC50 [1]: 7.68; pIC50 [2]: 7.17
